The record followed here is patent US12522612B2, “PDE4 inhibitors, pharmaceutical compositions, and therapeutic applications” (BioTheryX, Inc., priority 2019, dated 2026).

Assay [1] concerns TNF-α. Nature of the assay: Cell-based TNF-α inhibition assay in LPS-induced PBMCs (Meso Scale). Conditions: PBMC, PBMCs pretreated 1 h, LPS 100 ng/mL 18-24 h, relative to stimulated DMSO control; for inhibition at 0.1 µM: compound concentration 0.1 μM; for inhibition at 1 µM: compound concentration 1 μM. As for the experimental part: Frozen primary blood mononuclear cells (PBMCs) were quick thawed, washed once with RPMI 1640 media supplemented with 10% fetal bovine serum, 1% penicillin, and 1% streptomycin, and plated in a 96 well plate at 200,000 cells per well. The cells were pretreated with DMSO only as a control or a compound for 1 h, and then induced with LPS (lipopolysaccharide) (100 ng/mL) for 18-24 h. The supernatant was analyzed for TNF-α using the Meso Scale assay. Compound activity was determined as a percentage of the stimulated DMSO control. The results are summarized in Table 1, where A represents a percent inhibition value ≥60%; B represents a percent inhibition value <60% and ≥40%; C represents a percent inhibition value <40% and >20%; and D represents a single percent inhibition value <20%.

Assay [2] has as its target T1, PDE4B (Homo sapiens, UniProt Q07343).
T1 construct: Whole cell extracts were prepared using an immunoprecipitation (IP) lysis buffer; endogenous in cells; host or cells: A549
Nature of the assay: Protein degradation assay in A549 cells, western blot, PDE4B. Type of assay: cell-based. Conditions: 24 h treatment, read-out: PDE4B degradation relative to DMSO. As to the method:
A549 cells were grown in RPMI 1640 media supplemented with 10% fetal bovine serum, streptomycin, and penicillin. The cells were plated in 6-well plates in the growth media. The next day, fresh growth media were replaced on the cells. The cells were then treated with a compound for 24 h at predetermined concentrations. Whole cell extracts were prepared using an immunoprecipitation (IP) lysis buffer. Briefly, the cells were washed once in PBS, and the cell pellets were resuspended in the IP lysis buffer and incubated for 15 min on ice. Cells debris was removed by centrifugation and the cleared whole cell lysates were transferred to new tubes for further analysis.
For a western blot analysis, the whole cell protein extracts were separated on 4-12% SDS-polyacrylamide gels, transferred to nitrocellulose, and probed with primary antibodies. Membranes were subsequently washed and probed with IRDYE® secondary antibodies. The signals were detected using an ODYSSEY® Imaging System. The antibodies used in the assay included anti-PDE4B antibody; anti-PDE4D antibodies (top, bottom, and short isoform); β-actin mouse monoclonal antibody; IRDYE® 680RD goat anti-rabbit antibody; and IRDYE® 800CW goat anti-mouse antibody. Compounds B2 to B4, B18, B49 to B52, B76, B77, B79, B81 to B83, B88, B89, and B91 were determined to be able to degradate PDE4B as high as about 50% relative to DMSO.

A value given as a limit tells only on which side of the number the result lay.

T1 sequence (Q07343 whole entry): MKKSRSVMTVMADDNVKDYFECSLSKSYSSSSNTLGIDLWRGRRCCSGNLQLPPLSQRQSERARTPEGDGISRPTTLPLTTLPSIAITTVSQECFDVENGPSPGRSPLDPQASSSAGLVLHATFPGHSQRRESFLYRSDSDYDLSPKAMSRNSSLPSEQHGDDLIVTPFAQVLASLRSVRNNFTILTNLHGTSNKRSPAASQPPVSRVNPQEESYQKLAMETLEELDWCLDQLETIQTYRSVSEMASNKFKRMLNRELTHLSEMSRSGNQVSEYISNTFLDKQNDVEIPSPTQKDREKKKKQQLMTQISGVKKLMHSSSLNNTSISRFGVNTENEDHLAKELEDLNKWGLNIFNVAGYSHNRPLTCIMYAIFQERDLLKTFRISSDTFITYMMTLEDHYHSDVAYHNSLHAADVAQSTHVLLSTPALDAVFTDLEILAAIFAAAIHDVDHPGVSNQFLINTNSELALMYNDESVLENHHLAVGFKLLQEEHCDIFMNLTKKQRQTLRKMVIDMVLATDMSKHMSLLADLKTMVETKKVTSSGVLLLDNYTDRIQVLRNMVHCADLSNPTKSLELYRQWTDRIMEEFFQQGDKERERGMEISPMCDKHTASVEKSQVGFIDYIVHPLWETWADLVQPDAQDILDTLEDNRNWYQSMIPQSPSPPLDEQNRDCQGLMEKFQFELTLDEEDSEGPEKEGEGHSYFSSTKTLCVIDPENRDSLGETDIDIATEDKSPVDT

For `Cc1ncsc1-c1ccc(CNC(=O)[C@@H]2C[C@@H](O)CN2C(=O)[C@@H](NC(=O)CCCCCCCCOc2cc(C(=O)Nc3c(Cl)cncc3Cl)ccc2OC(F)F)C(C)(C)C)cc1` [Compound B68, (2S,4R)-1-((S)-2-(9-(5-((3,5-Dichloropyridin-4-yl)carbamoyl)-2-(difluoromethoxy)phenoxy)nonanamido)-3,3-dimethylbutanoyl)-4-hydroxy-N-(4-(4-methylthiazol-5-yl)benzyl)pyrrolidine-2-carboxamide], in assay [1], the inhibition (in general, how much of the control response was suppressed) at 0.1 µM was not below 60% and the inhibition at 1 µM was not below 60%.
For the molecule `CCOc1cc([C@@H](CS(C)(=O)=O)N2C(=O)c3cc(CCCN4CCC(c5cc(F)cc6c5CN(C5CCC(=O)NC5=O)C6=O)CC4)cc(NC(C)=O)c3C2=O)ccc1OC` (stereo partly drawn) [Compound B69, N-(6-(3-(4-(2-(2,6-Dioxopiperidin-3-yl)-6-fluoro-1-oxoisoindolin-4-yl)piperidin-1-yl)propyl)-2-((S)-1-(3-ethoxy-4-methoxyphenyl)-2-(methylsulfonyl)ethyl)-1,3-dioxoisoindolin-4-yl)acetamide], in assay [1], the inhibition at 0.1 µM was 40 to 60% and the inhibition at 1 µM was not below 60%.
For the molecule `CCOc1cc([C@@H](CS(C)(=O)=O)N2C(=O)c3cccc(NC(=O)CCCCCCCCNCc4ccc(OCc5scc6c5CN(C5CCC(=O)NC5=O)C6=O)cc4)c3C2=O)ccc1OC` (stereo partly drawn) [Compound B70, 9-((4-((5-(2,6-Dioxopiperidin-3-yl)-4-oxo-5,6-dihydro-4H-thieno[3,4-c]pyrrol-1-yl)methoxy)benzyl)amino)-N-(2-((S)-1-(3-ethoxy-4-methoxyphenyl)-2-(methylsulfonyl)ethyl)-1,3-dioxoisoindolin-4-yl)nonanamide], in assay [1], the inhibition at 0.1 µM is not below 60% and the inhibition at 1 µM was not below 60%.
On to `CCOc1cc([C@@H](CS(C)(=O)=O)N2C(=O)c3cccc(NC(=O)CCCCCCCCCCCNc4cccc5c4C(=O)N(C4CCC(=O)NC4=O)C5=O)c3C2=O)ccc1OC` (stereo partly drawn) [Compound B71, 12-((2-(2,6-Dioxopiperidin-3-yl)-1,3-dioxoisoindolin-4-yl)amino)-N-(2-((S)-1-(3-ethoxy-4-methoxyphenyl)-2-(methylsulfonyl)ethyl)-1,3-dioxoisoindolin-4-yl)dodecanamide], for which, in assay [1], the inhibition at 0.1 µM was not below 60% and the inhibition at 1 µM is not below 60%.
As to `O=C1CCC(N2C(=O)c3cccc(NCCCCCCCOc4cc(C(=O)Nc5c(Cl)cncc5Cl)ccc4OC(F)F)c3C2=O)C(=O)N1` (stereo not shown) [Compound B72, N-(3,5-Dichloropyridin-4-yl)-4-(difluoromethoxy)-3-((7-((2-(2,6-dioxopiperidin-3-yl)-1,3-dioxoisoindolin-4-yl)amino)heptyl)oxy)benzamide], in assay [1], the inhibition at 0.1 µM is not below 60% and the inhibition at 1 µM is not below 60%.
As for `O=C1CCC(N2Cc3c(cc(F)cc3C3CCN(CCCCCCCCCCCCOc4cc(C(=O)Nc5c(Cl)cncc5Cl)ccc4OC(F)F)CC3)C2=O)C(=O)N1` (stereo not shown) [Compound B73, N-(3,5-Dichloropyridin-4-yl)-4-(difluoromethoxy)-3-((12-(4-(2-(2,6-dioxopiperidin-3-yl)-6-fluoro-1-oxoisoindolin-4-yl)piperidin-1-yl)dodecyl)oxy)benzamide], in assay [1], the inhibition at 0.1 µM is not below 60% and the inhibition at 1 µM is not below 60%.
Turning to `O=C1CCC(N2C(=O)c3cccc(NCCOCCOCCOCCOc4ccc(C(=O)Nc5c(Cl)cncc5Cl)cc4OC(F)F)c3C2=O)C(=O)N1` (stereo not shown) [Compound B74, N-(3,5-Dichloropyridin-4-yl)-3-(difluoromethoxy)-4-(2-(2-(2-(2-((2-(2,6-dioxopiperidin-3-yl)-1,3-dioxoisoindolin-4-yl)amino)ethoxy)ethoxy)ethoxy)ethoxy)benzamide], in assay [1], the inhibition at 0.1 µM was not below 60% and the inhibition at 1 µM was not below 60%.
Turning to `CCOc1cc([C@@H](CS(C)(=O)=O)N2C(=O)c3cccc(NC(=O)CCCCCCCCN4CCC(c5cc6c(cc5F)C(=O)N(C5CCC(=O)NC5=O)C6)CC4)c3C2=O)ccc1OC` (stereo partly drawn) [Compound B75, 9-(4-(2-(2,6-Dioxopiperidin-3-yl)-6-fluoro-1-oxoisoindolin-5-yl)piperidin-1-yl)-N-(2-((S)-1-(3-ethoxy-4-methoxyphenyl)-2-(methylsulfonyl)ethyl)-1,3-dioxoisoindolin-4-yl)nonanamide], in assay [1], the inhibition at 0.1 µM is not below 60% and the inhibition at 1 µM was not below 60%.
Regarding `CCOc1cc([C@@H](CS(C)(=O)=O)N2C(=O)c3cccc(NC(=O)CCCCNCc4ccc(OCc5scc6c5CN(C5CCC(=O)NC5=O)C6=O)cc4)c3C2=O)ccc1OC` (stereo partly drawn) [Compound B78, 5-((4-((5-(2,6-Dioxopiperidin-3-yl)-4-oxo-5,6-dihydro-4H-thieno[3,4-c]pyrrol-1-yl)methoxy)benzyl)amino)-N-(2-((S)-1-(3-ethoxy-4-methoxyphenyl)-2-(methylsulfonyl)ethyl)-1,3-dioxoisoindolin-4-yl)pentanamide], the inhibition at 1 µM in assay [1] is not below 60%.
Still for that read-out and setting: the result for `COc1ccc(N2Cc3sccc3C2=O)cc1OCCCCCCCN1CCC(c2cc(F)cc3c2CN(C2CCC(=O)NC2=O)C3=O)CC1` (stereo not shown) [Compound B80, 3-(6-Fluoro-4-(1-(7-(2-methoxy-5-(4-oxo-4,6-dihydro-5H-thieno[2,3-c]pyrrol-5-yl)phenoxy)heptyl)piperidin-4-yl)-1-oxoisoindolin-2-yl)piperidine-2,6-dione] reads not below 60%.
On to `O=C1CCC(N2Cc3c(NCCCOCCOCCOCCOc4ccc(C(=O)Nc5c(Cl)cncc5Cl)cc4OCC4CC4)cccc3C2=O)C(=O)N1` (stereo not shown) [Compound B81, 3-(Cyclopropylmethoxy)-N-(3,5-dichloropyridin-4-yl)-4-(2-(2-(2-(3-((2-(2,6-dioxopiperidin-3-yl)-1-oxoisoindolin-4-yl)amino)propoxy)ethoxy)ethoxy)ethoxy)benzamide], for which, in assay [2], the Dmax is not above 50%.
`O=C1CCC(N2Cc3c(cc(F)cc3C3CCN(CCCCCCCCCOc4ccc(C(=O)Nc5c(Cl)cncc5Cl)cc4OCC4CC4)CC3)C2=O)C(=O)N1` (stereo not shown) [Compound B84, 3-(Cyclopropylmethoxy)-N-(3,5-dichloropyridin-4-yl)-4-((9-(4-(2-(2,6-dioxopiperidin-3-yl)-6-fluoro-1-oxoisoindolin-4-yl)piperidin-1-yl)nonyl)oxy)benzamide]: in assay [1], the inhibition at 1 µM is not below 60%.
Regarding `CC(=O)NC(=O)C(C)N1Cc2c(cc(F)cc2C2CCN(CCCCCCCCCOc3cc(C(=O)Nc4c(Cl)cncc4Cl)ccc3OC(F)F)CC2)C1=O` (stereo not shown) [Compound B85, 3-((9-(4-(2-(1-Acetamido-1-oxopropan-2-yl)-6-fluoro-1-oxoisoindolin-4-yl)piperidin-1-yl)nonyl)oxy)-N-(3,5-dichloropyridin-4-yl)-4-(difluoromethoxy)benzamide], in assay [1], the inhibition at 1 µM fell in the range of 20 to 40%.
For the molecule `Cc1ncsc1-c1ccc(CNC(=O)[C@@H]2C[C@@H](O)CN2C(=O)[C@@H](NC(=O)CCCCCCCCOc2cc(C(=O)Nc3c(Cl)cncc3Cl)ccc2OCC2CC2)C(C)(C)C)cc1` [Compound B86, (2S,4R)-1-((S)-2-(9-(2-(Cyclopropylmethoxy)-5-((3,5-dichloropyridin-4-yl)carbamoyl)phenoxy)nonanamido)-3,3-dimethylbutanoyl)-4-hydroxy-N-(4-(4-methylthiazol-5-yl)benzyl)pyrrolidine-2-carboxamide], the inhibition at 1 µM in assay [1] is not below 60%.
On to `CCOc1cc([C@@H](CS(C)(=O)=O)N2C(=O)c3cc(CCCCCCCC4CCN(c5cccc6c5C(=O)N(C5CCC(=O)NC5=O)C6=O)CC4)cc(NC(C)=O)c3C2=O)ccc1OC` (stereo partly drawn) [Compound B88, N-(6-(7-(1-(2-(2,6-Dioxopiperidin-3-yl)-1,3-dioxoisoindolin-4-yl)piperidin-4-yl)heptyl)-2-((S)-1-(3-ethoxy-4-methoxyphenyl)-2-(methylsulfonyl)ethyl)-1,3-dioxoisoindolin-4-yl)acetamide], for which the Dmax in assay [2] is not above 50%.
As for `CCOc1cc([C@@H](CS(C)(=O)=O)N2C(=O)c3cccc(NC(=O)CCOCCOCCNc4cccc5c4C(=O)N(C4CCC(=O)NC4=O)C5=O)c3C2=O)ccc1OC` (stereo partly drawn) [Compound B89, 3-(2-(2-((2-(2,6-Dioxopiperidin-3-yl)-1,3-dioxoisoindolin-4-yl)amino)ethoxy)ethoxy)-N-(2-((S)-1-(3-ethoxy-4-methoxyphenyl)-2-(methylsulfonyl)ethyl)-1,3-dioxoisoindolin-4-yl)propanamide], the Dmax in assay [2] is not above 50%.
The same measure, in the same setting: the result for `O=C1CCC(N2Cc3c(cc(F)cc3C3CCN(CCCCCCCOc4ccc(N5Cc6sccc6C5=O)cc4OC4CCCC4)CC3)C2=O)C(=O)N1` (stereo not shown) [Compound B91, 3-(4-(1-(7-(2-(Cyclopentyloxy)-4-(4-oxo-4,6-dihydro-5H-thieno[2,3-c]pyrrol-5-yl)phenoxy)heptyl)piperidin-4-yl)-6-fluoro-1-oxoisoindolin-2-yl)piperidine-2,6-dione] reads not above 50%.
